12 molecules from patent US10392348B2, “2-oxo-3,4-dihydroquinoline compounds as plant growth regulators” (Syngenta Participations AG, priority 2015, dated 2019) can be followed below.

Where two headings read alike, the source gives them in different places.

In series [1] the test system is corn plants (variety NK OCTET). Briefly: Reduced plant water use in corn (foliar spray, repeated weighing of pots). The format is in vivo. The note with it: Zea mays, corn plants sprayed at 500 μM, average of 6 pots. As for the experimental part: Compounds were tested for their effect on reducing plant water use as follows. The compounds were applied by foliar spray to 12 day old corn plants (variety NK OCTET) grown in controlled environment plant growth chambers. All compounds were applied using an emulsifiable concentrate (EC) formulation that was diluted to the desired concentrations with water containing 0.4% of the adjuvant rape seed methyl ester. Plant water use during the day was assessed by repeated weighing of the pots in which the plants were grown before and after application of the compounds at the indicated times (expressed in days after application (DAA)). The water use data before application was used to correct any differences in water use arising due to non-treatment effects (e.g. due to differences in plant size). The untransformed water use values were subjected to an analysis of covariance, fitting the effect of treatment and using the baseline water use 1 day before application as a covariate. Application of the chemicals (0 DAA) takes place approximately between 08:00 and 09:30 a.m. WU is measured within day time (chamber light is on 06:00 to 20:00) at these timepoints: 0 DAA a.m. (10:30-12:50), 0 DAA p.m. (14:00-19:50), 1 DAA a.m. (07:30-12:50), 1 DAA p.m. (14:00-19:50), 2 DAA a.m. (07:30-12:50) and 2 DAA p.m. (14:00-19:50). The cumulative total WU (0-2.5 DAA) is calculated by summing the WU data mentioned above.

Series [2] deals with soybean plants (variety S20-G7). Description: Reduced plant water use in soybean (foliar spray, repeated weighing of pots). The format is in vivo. Particulars: Glycine max, foliar, Table B1, sprayed at 500 μM, vs negative control. In outline: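 Compounds in blank EC formulation diluted in water with EXTRAVON 1 g/20 L, foliar-sprayed on 12-day-old soybean in growth chambers. Water use from repeated pot weighing at a.m./p.m. periods over 0-2 DAA, summed to cumulative 0-2.5 DAA; ANCOVA with pre-application baseline covariate, relative to blank-formulation control.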

Where [3] appears, read: 0 h, water use during day time vs negative control, 0 DAA a.m. (10:30-12:50), read-out: % WU 0 DAA AM.
Where [4] appears, read: 0 h, water use during day time vs negative control, 0 DAA p.m. (14:00-19:50), read-out: % WU 0DAA PM.
Where [5] appears, read: 24 h, water use during day time vs negative control, 1 DAA a.m. (07:30-12:50), read-out: % WU 1DAA AM.
Where [6] appears, read: 24 h, water use during day time vs negative control, 1 DAA p.m. (14:00-19:50), read-out: % WU 1DAA PM.
The mark [7] stands for this setting: 48 h, water use during day time vs negative control, 2 DAA a.m. (07:30-12:50), read-out: % WU 2 DAA AM.
Where [8] appears, read: 48 h, water use during day time vs negative control, 2 DAA p.m. (14:00-19:50), read-out: % WU 2 DAA PM.
The mark [9] stands for this setting: 60 h, cumulative total water use 0-2.5 DAA (sum of the time points) vs negative control, read-out: % WU Total 0 to 2.5 DAA.
Setting [10] is: 0 h, 0 DAA a.m. (10:30-12:50), read-out: % WU 0 DAA AM.
The mark [11] stands for this setting: 24 h, 1 DAA a.m. (7:30-12:50), read-out: % WU 1DAA AM.
Where [12] appears, read: 24 h, 1 DAA p.m. (14:00-19:50), read-out: % WU 1DAA PM.
Setting [13] is: 48 h, 2 DAA a.m. (07:30-12:50), read-out: % WU 2 DAA AM.
The mark [14] stands for this setting: 48 h, 2 DAA p.m. (14:00-19:50), read-out: % WU 2 DAA PM.
[15] abbreviates: 60 h, cumulative total WU (0-2.5 DAA), read-out: % WU Total 0 to 2.5 DAA.

Take `CCN1C(=O)CCc2cc(CNS(=O)(=O)c3ccc(C(F)(F)F)cc3)ccc21` [Compound 2.015, N-[(1-ethyl-2-oxo-3,4-dihydroquinolin-6-yl)methyl]-4-(trifluoromethyl)benzenesulfonamide]: the melting point – broadly, the temperature of the solid-liquid transition – lay within 180 to 181 °C. Besides, the change in vivo at 500 µM in series [1] (setting [3]) was -8.9%. In addition, in series [1] (setting [4]), the change in vivo at 500 µM was -3.4%. Also, in series [1] (setting [5]), the change in vivo at 500 µM was -4%. In series [1] (setting [6]), the change in vivo at 500 µM was -2.6%. Besides, the change in vivo at 500 µM in series [1] (setting [7]) is -1.9%. Also, the change in vivo at 500 µM in series [1] (setting [8]) is -1%. Further, the change in vivo at 500 µM in series [1] (setting [9]) is -2.9%.
`CCN1C(=O)CCc2cc(CNS(=O)(=O)/C=C/c3ccccc3)ccc21` [Compound 2.051, (E)-N-[(1-ethyl-2-oxo-3,4-dihydroquinolin-6-yl)methyl]-2-phenyl-ethenesulfonamide] displayed a melting point of 134 to 137 °C. In addition, in series [1] (setting [3]), the change in vivo at 500 µM was -13.2%. In series [1] (setting [4]), the change in vivo at 500 µM was -8.5%. In addition, the change in vivo at 500 µM in series [1] (setting [5]) is -10.7%. In addition, the change in vivo at 500 µM in series [1] (setting [6]) is -8.6%. Moreover, the change in vivo at 500 µM in series [1] (setting [7]) was -8.7%. In addition, the change in vivo at 500 µM in series [1] (setting [8]) was -6.5%. Moreover, the change in vivo at 500 µM in series [1] (setting [9]) is -9.1%.
The molecule `CCN1C(=O)CCc2cc(CNS(=O)(=O)/C=C/c3cccc(Cl)c3)ccc21` [Compound 2.069, (E)-2-(3-chlorophenyl)-N-[(1-ethyl-2-oxo-3,4-dihydroquinolin-6-yl)methyl]ethenesulfonamide] showed a melting point of 149 to 151 °C. For the same molecule, the change in vivo at 500 µM in series [1] (setting [3]) is -6.5%. Further, the change in vivo at 500 µM in series [1] (setting [4]) was -3.5%. In addition, the change in vivo at 500 µM in series [1] (setting [5]) is -3.3%. Besides, the change in vivo at 500 µM in series [1] (setting [6]) was -3.7%. The change in vivo at 500 µM in series [1] (setting [7]) is -2.1%. The change in vivo at 500 µM in series [1] (setting [8]) is -1.9%. Also, the change in vivo at 500 µM in series [1] (setting [9]) was -3.2%.
In the case of `CCN1C(=O)CCc2cc(CNS(=O)(=O)/C=C/c3cccc(Br)c3)ccc21` [Compound 2.070, (E)-2-(3-bromophenyl)-N-[(1-ethyl-2-oxo-3,4-dihydroquinolin-6-yl)methyl]ethenesulfonamide], the melting point fell in the range of 144 to 147 °C. Moreover, the change in vivo at 500 µM in series [1] (setting [3]) was -8.1%. For the same molecule, the change in vivo at 500 µM in series [1] (setting [4]) is -4.1%. Also, the change in vivo at 500 µM in series [1] (setting [5]) is -6.1%. In series [1] (setting [6]), the change in vivo at 500 µM was -5.5%. Also, in series [1] (setting [7]), the change in vivo at 500 µM is -4.8%. For the same molecule, in series [1] (setting [8]), the change in vivo at 500 µM was -3.8%. The change in vivo at 500 µM in series [1] (setting [9]) is -5%.
For `CCCN1C(=O)CCc2cc(CNS(=O)(=O)c3ccc(Cl)cc3)ccc21` [Compound 3.004, 4-chloro-N-[(2-oxo-1-propyl-3,4-dihydroquinolin-6-yl)methyl]benzenesulfonamide], the melting point lay within 138 to 139 °C. In series [1] (setting [3]), the change in vivo at 500 µM was -17.3%. For the same molecule, the change in vivo at 500 µM in series [1] (setting [4]) was -12.5%. Also, the change in vivo at 500 µM in series [1] (setting [5]) was -14.1%. For the same molecule, the change in vivo at 500 µM in series [1] (setting [6]) is -12.9%. The change in vivo at 500 µM in series [1] (setting [7]) is -11.8%. In series [1] (setting [8]), the change in vivo at 500 µM is -10.7%. Further, in series [1] (setting [9]), the change in vivo at 500 µM is -12.8%.
In turn, `CCCN1C(=O)CCc2cc(CNS(=O)(=O)c3ccccc3Br)ccc21` [Compound 3.017, 2-bromo-N-[(2-oxo-1-propyl-3,4-dihydroquinolin-6-yl)methyl]benzenesulfonamide] returned a melting point of 157 to 159 °C. In addition, the change in vivo at 500 µM in series [1] (setting [3]) was -5.8%. In series [1] (setting [4]), the change in vivo at 500 µM was -3.1%. Besides, the change in vivo at 500 µM in series [1] (setting [5]) was -3.1%. Further, in series [1] (setting [6]), the change in vivo at 500 µM is -2.5%. The change in vivo at 500 µM in series [1] (setting [7]) is -1.8%. Also, the change in vivo at 500 µM in series [1] (setting [8]) was -2.1%. Also, in series [1] (setting [9]), the change in vivo at 500 µM was -2.7%.
In the case of `CCCN1C(=O)CCc2cc(CNS(=O)(=O)/C=C/c3ccccc3)ccc21` [Compound 3.051, (E)-N-[(2-oxo-1-propyl-3,4-dihydroquinolin-6-yl)methyl]-2-phenyl-ethenesulfonamide], the melting point lay in the range of 165 to 168 °C. Moreover, the change in vivo at 500 µM in series [1] (setting [3]) is -11.2%. Moreover, the change in vivo at 500 µM in series [1] (setting [4]) is -6.4%. In addition, the change in vivo at 500 µM in series [1] (setting [5]) was -8.1%. For the same molecule, in series [1] (setting [6]), the change in vivo at 500 µM is -5.5%. Besides, the change in vivo at 500 µM in series [1] (setting [7]) was -5.4%. The change in vivo at 500 µM in series [1] (setting [8]) was -4.3%. For the same molecule, the change in vivo at 500 µM in series [1] (setting [9]) is -6.2%.
Take `CCCN1C(=O)CCc2cc(CNS(=O)(=O)/C=C/c3ccc(Br)cc3)ccc21` [Compound 3.052, (E)-2-(4-bromophenyl)-N-[(2-oxo-1-propyl-3,4-dihydroquinolin-6-yl)methyl]ethenesulfonamide]: the melting point lay within 150 to 152 °C. Also, the change in vivo at 500 µM in series [1] (setting [3]) is -9.6%. Further, the change in vivo at 500 µM in series [1] (setting [4]) is -4.6%. The change in vivo at 500 µM in series [1] (setting [5]) was -4.5%. Besides, in series [1] (setting [6]), the change in vivo at 500 µM is -4.5%. For the same molecule, in series [1] (setting [7]), the change in vivo at 500 µM is -2.2%. For the same molecule, the change in vivo at 500 µM in series [1] (setting [8]) is -2.5%. Further, the change in vivo at 500 µM in series [1] (setting [9]) was -4.1%.
In the case of `CCCN1C(=O)CCc2cc(CNS(=O)(=O)c3cccs3)ccc21` [Compound 3.072, N-[(2-oxo-1-propyl-3,4-dihydroquinolin-6-yl)methyl]thiophene-2-sulfonamide], the melting point is 151 to 153 °C. In addition, the change in vivo at 500 µM in series [2] (setting [10]) is -39.4%. In addition, the change in vivo at 500 µM in series [2] (setting [11]) is -45.9%. Further, in series [2] (setting [12]), the change in vivo at 500 µM is -40.9%. Further, the change in vivo at 500 µM in series [2] (setting [13]) was -39.8%. Moreover, in series [2] (setting [14]), the change in vivo at 500 µM was -32.2%. Further, the change in vivo at 500 µM in series [2] (setting [15]) was -40.1%.
In turn, `CCCN1C(=O)CCc2cc(CNS(=O)(=O)c3ccc(Cl)s3)ccc21` [Compound 3.073, 5-chloro-N-[(2-oxo-1-propyl-3,4-dihydroquinolin-6-yl)methyl]thiophene-2-sulfonamide] showed a melting point of 144 to 147 °C. Moreover, in series [2] (setting [10]), the change in vivo at 500 µM is -44.6%. For the same molecule, the change in vivo at 500 µM in series [2] (setting [11]) is -54.9%. In addition, in series [2] (setting [12]), the change in vivo at 500 µM was -52.1%. Further, the change in vivo at 500 µM in series [2] (setting [13]) is -53.3%. Further, the change in vivo at 500 µM in series [2] (setting [14]) was -48.7%. The change in vivo at 500 µM in series [2] (setting [15]) was -51%.
In turn, `CCCN1C(=O)CCc2cc(CNS(=O)(=O)c3cccc4ccccc34)ccc21` [Compound 3.074, N-[(2-oxo-1-propyl-3,4-dihydroquinolin-6-yl)methyl]naphthalene-1-sulfonamide] had a melting point of 176 to 179 °C. For the same molecule, the change in vivo at 500 µM in series [2] (setting [10]) is -8.6%. The change in vivo at 500 µM in series [2] (setting [11]) is 0%. For the same molecule, the change in vivo at 500 µM in series [2] (setting [12]) amounted to 1%. In addition, in series [2] (setting [13]), the change in vivo at 500 µM is -1.5%. Further, the change in vivo at 500 µM in series [2] (setting [14]) was 0%. Further, in series [2] (setting [15]), the change in vivo at 500 µM is -1.4%.
As to `CCCn1c(=O)ccc2cc(CNS(=O)(=O)c3ccccc3)ccc21` [Compound 7.001, N-[(2-oxo-1-propyl-6-quinolyl)methyl]benzenesulfonamide], the melting point is 204 to 206 °C. In addition, the change in vivo at 500 µM in series [2] (setting [10]) was -17.1%. Further, in series [2] (setting [11]), the change in vivo at 500 µM was -9.1%. In series [2] (setting [12]), the change in vivo at 500 µM was -6.9%. Further, the change in vivo at 500 µM in series [2] (setting [13]) was -6.9%. Further, the change in vivo at 500 µM in series [2] (setting [14]) was -2.5%. Besides, in series [2] (setting [15]), the change in vivo at 500 µM is -8.8%.
